These results are taken from patent US20230115476A1, “DIETARY BUTYRATE AND ITS USES” (SOCIETE DES PRODUITS NESTLE S.A., priority 2019, published 2023).

Data set [1] deals with rabbit gastric lipase (RGL) followed by porcine pancreatic lipase (PPL). The data set can be described thus: Sequential in vitro digestion, simulated gastric fluid (SGF) then SIF, pH-stat. It is filed as in vitro ADME. The method, then: (§1) 10 wt% oil in water emulsions stabilised by 0.3 wt% polyoxyethylene sorbitan mono-oleate (Tween® 80) were prepared by mixing the Tween 80 into the oil phase at 40° C., then mixing with the water phase using a magnetic stirrer. An emulsion was then created using a Hielscher UP 400S ultrasonic probe homogeniser equipped with a 5 mm diameter rod-like probe by applying 100% amplitude at 100% cycle for 2 minutes whilst the sample was cooled using ice water.
The lipid emulsion (2 mL) containing 200 mg of fat was subjected to gastrointestinal in vitro lipolysis. […] For gastric digestion, the sample was incubated for 90 minutes with 8.5 mL of simulated gastric fluid (SGF), which consisted of 150 mM NaCl, 450 U/mL pepsin, 18 U/mL rabbit gastric lipase at 37° C. and a pH of 5.5.
The intestinal digestion step was performed in the pH stat where the pH was kept constant at 6.8 by addition of NaOH (0.05 M). […] The intestinal digestion step starts when the temperature reaches 37 ± 0.5° C. The pH was adjusted to pH 6.8 and after incubation of two minutes at this pH and temperature, a pancreatin solution (5 mM tris, 150 mM NaCl at pH 6.8) was added. The final composition of the intestinal fluid was 10 mM CaCl2, 12 mM mixed bile salts, 0.75 mM phospholipid, 150 mM NaCl and 4 mM tris(hydroxymethyl)aminomethane buffer. The intestinal digestion step was carried out for 3 hours in a titration manager from Radiometer. During the intestinal phase of digestion, the kinetics of digestion were followed using a pH-stat (TIM856, Radiometer) technique and expressed as titratable acid (rather than fatty acid) that was calculated by the equation: […]
(§2) Since the digestion of dietary lipids involves lipases of both gastric and intestinal origin, lipid digestibility was assessed using two digestion models i) simulated intestinal fluid (SIF) with porcine pancreatic lipase (PPL) and ii) sequential digestion in simulated gastric fluid (SGF) with rabbit gastric lipase (RGL) followed by simulated intestinal fluid (SIF) with porcine pancreatic lipase (PPL).

For data set [2], the system named is Enterobacteriaceae, Salmonella. To be noted: following oral streptomycin administration; Byndloss 2017, Rivera-Chavez 2016; cited from earlier work.
In a further data set the test system is colon epithelial cells. To be noted: Gillis et al. 2018; cited from earlier work.
Data set [3] relates to porcine pancreatic lipase (PPL). The data set can be described thus: In vitro lipolysis in simulated intestinal fluid (SIF), pH-stat. It is filed as in vitro ADME. As for the experimental part: as §1
The lipid emulsion (2 mL) containing 200 mg of fat was subjected to gastrointestinal in vitro lipolysis. […]
The intestinal digestion step was performed in the pH stat where the pH was kept constant at 6.8 by addition of NaOH (0.05 M). […] During the intestinal phase of digestion, the kinetics of digestion were followed using a pH-stat (TIM856, Radiometer) technique and expressed as titratable acid (rather than fatty acid) that was calculated by the equation: […]
as §2

Turning to `CCCC(=O)OCC(COC(=O)CCC)OC(=O)CCC` [tributyrin], the “Initial lipolysis rate in SIF” value in data set [1] (SGF-SIF sequential digestion, 90 min SGF pH 5.5 first) was 44.1 ± 8.8 µmol/min. Also, the “Lipolysis by gastric lipase” value in data set [1] (indicated by decreased total fatty acid release in SIF after RGL in SGF) was ~ 60%. The “Hydrolysis in the stomach (gastric lipolysis)” value in data set [1] (overall conclusion in words) is reported as “extensive hydrolysis in the stomach”. The “Effect on pathogen expansion” value in data set [2] is “restrict pathogen expansion”. Also, in the data set on colon epithelial cells, the “Effect on antibiotic-induced lactate production” value is “reduce antibiotic-induced lactate production”. The “Initial rate of lipolysis” value in data set [3] (SIF alone, emulsion with 200 mg fat, pH 6.8, 37° C.) was 223 ± 59 µmol/min. In data set [3] (back titration to pH 11.5, overall extent after SIF and SGF-SIF (FIG. 2)), the Extent of digestion is reported as 101.5 ± 0.9%.
